Experimental data from PMC7287031 (Pharmacology Research & Perspectives, 2020).

Experiments:
Rat milk excretion study = type: in vivo; settings: female, milk (relative to plasma), lactating rats, read-out: milk exposure (AUCinf) relative to plasma exposure
Description: Metabolite profiling was conducted on plasma, urine, bile, and feces samples in the rat and dog ADME studies, and further metabolite profiling on plasma and milk was conducted in a dedicated rat milk excretion study.
Plasma samples obtained from these studies were extracted with equal volumes of acetonitrile. Additional extractions of the protein pellet with acetonitrile and/or acetone were conducted as needed to maximize radioactivity recovery. Feces samples were initially extracted with two to four volumes of acetonitrile. Additional extractions of the pellet following centrifugation and removal of supernatant were conducted with acetonitrile and/or acetone as needed to maximize radioactivity recovery. Urine and bile samples were analyzed directly following centrifugation. Radioactivity recoveries following the centrifugation step were measured by LSC. Milk samples were extracted with two volumes of acetonitrile, following centrifugation and removal of supernatant, the pellets were re‐suspended in 100 µL of water and re‐extracted with 200 µL acetonitrile.

[1] = system: hepatic P450 isoenzymes (total); experiment: Biotransformation by a panel of 17 recombinant human CYPs and three FMOs; type: in vitro ADME; settings: human, recombinant human CYPs, scaled to human liver microsomes, pH 7.4; sum over CYPs, based on recombinant enzyme data; read-out: Rel.Clint,u in HLM, total of hepatic P450 isoenzymes
Description: (§1) In vitro incubations were carried out in 100‐mM potassium phosphate buffer (pH 7.4) and 5‐mM MgCl2 with a total volume of 200 µL. Substrate and either human liver microsomes (HLM, BD Biosciences, mixed gender pool of n = 50) or recombinant human enzymes (BD Biosciences) were added and pre‐incubated for 3 minutes at 37°C. The reaction was started by addition of a fresh solution of NADPH (1 mmol/L final concentration). The samples were incubated at 37°C with agitation of 500 rpm. For incubations with CYP2A6, CYP2C9, CYP2C18, and CYP4A11, the phosphate buffer was replaced by TRIS buffer (100 mmol/L, pH 7.4) and for flavin‐containing monooxygenases (FMOs), a glycine buffer (50 mM, pH 9.5) was used.
(§2) The enzymatic reaction was stopped and the protein was precipitated by addition of an equal volume of methanol. After 30 min at −80°C, the samples were centrifuged at 30'000 x g for 15 min. The supernatant was withdrawn. Aliquots were analyzed by LSC and the supernatant was diluted with water to obtain a final solution containing less than 20% of the organic solvent. For samples of low substrate concentration, supernatants were evaporated to dryness under nitrogen, then re‐suspended in water containing less than 20% of methanol. Samples were analyzed by HPLC combined with radiodetection.
(§3) The relative contribution of CYP enzymes to oxidative hepatic metabolism was determined using their Clint values multiplied by the unbound fraction in microsomes and their abundances in human liver microsomes. ^15 Among the hepatic P450 enzymes, CYP3A4 contributed predominantly (97%) to metabolism in human liver microsomes (Table 1) with negligible fraction metabolized by CYP1A2 (1.1%), CYP2J2 (0.8%), and CYP3A5 (1.2%).

[2] = system: recombinant human CYPs and FMOs; experiment: as above; type: in vitro ADME
Description: as §1, §2, §3

SMILES: CN(C)C(=O)c1cc2cnc(Nc3ccc(N4CCNCC4)cn3)nc2n1C1CCCC1 [ribociclib, Ribociclib]
- Kp (Rat milk excretion study): 3.6
- microsomal CLint [1]: 49.2 µL/min/mg
- turnover by recombinant enzymes ([2]; CYP1A2, CYP3A5, FMO3, and FMO5, 0.75 and 20 µmol/L, 15 min): Low metabolic activities
- turnover by recombinant enzymes ([2]; CYP1B1, CYP2A6, CYP2B6, CYP2C8, CYP2C9, CYP2C18, CYP2C19, CYP2D6, CYP2E1, CYP4A11, and CYP4F2): No metabolic activities were detected
- turnover by recombinant enzymes ([2]; CYP3A4, CYP2J2, CYP1A1, FMO1, and FM03, 0.75 and 20 µmol/L, 15 min): high turnover
